ChEMBL document CHEMBL1641384, “QSAR of adenosine receptor antagonists: Exploring physicochemical requirements for binding of pyrazolo[4,3-e]-1,2,4-triazolo[1,5-c]pyrimidine derivatives with human adenosine A(3) receptor subtype” (Bioorg Med Chem Lett, 2011)

target: T1, Adenosine receptor A3 (Homo sapiens, UniProt P0DMS8); test: Displacement of [3H]MRE3008-F20 from human adenosine A3 receptor expressed in CHO cells after 120 mins; type: cell-based
T1 sequence (P0DMS8 whole entry): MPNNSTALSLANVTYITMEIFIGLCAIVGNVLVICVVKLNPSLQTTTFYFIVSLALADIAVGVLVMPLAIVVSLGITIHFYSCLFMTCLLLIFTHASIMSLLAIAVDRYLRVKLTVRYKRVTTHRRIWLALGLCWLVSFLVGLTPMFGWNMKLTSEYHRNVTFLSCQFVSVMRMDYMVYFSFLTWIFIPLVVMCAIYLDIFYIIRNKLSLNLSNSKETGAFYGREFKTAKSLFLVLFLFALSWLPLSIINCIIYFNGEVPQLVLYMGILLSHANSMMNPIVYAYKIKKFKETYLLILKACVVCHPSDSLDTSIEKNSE

Structure (SMILES) | Ki
CCn1cc2c(nc(N)n3nc(-c4ccco4)nc23)n1 | 407 nM
CCCn1cc2c(nc(NC(=O)Nc3cccc(Cl)c3)n3nc(-c4ccco4)nc23)n1 | 1.58 nM
CCn1cc2c(nc(NC(=O)Nc3cccc(Cl)c3)n3nc(-c4ccco4)nc23)n1 | 0.912 nM
Cn1cc2c(nc(NC(=O)Nc3ccc4c(c3)OCO4)n3nc(-c4ccco4)nc23)n1 | 0.24 nM
CCn1cc2c(nc(NC(=O)Nc3ccc4c(c3)OCO4)n3nc(-c4ccco4)nc23)n1 | 0.269 nM
CCCn1cc2c(nc(NC(=O)Nc3ccc4c(c3)OCO4)n3nc(-c4ccco4)nc23)n1 | 0.302 nM
CCCCn1cc2c(nc(NC(=O)Nc3ccc4c(c3)OCO4)n3nc(-c4ccco4)nc23)n1 | 0.501 nM
CCCCCCCCn1cc2c(nc(NC(=O)Nc3ccc(C)cc3)n3nc(-c4ccco4)nc23)n1 | 4.07 nM
CCCn1cc2c(nc(N)n3nc(-c4ccco4)nc23)n1 | 331 nM
CCn1cc2c(nc(NC(=O)Nc3ccc(OC)cc3)n3nc(-c4ccco4)nc23)n1 | 0.794 nM
